Source: PMC11892125 (BMC Chemistry, 2025)

Target: b-CA-II (bovine carbonic anhydrase II) (Bos taurus, UniProt P00921)
Assay: p-nitrophenyl acetate esterase assay, bovine enzyme, absorbance at […] nm
Format: biochemical

Sequence of b-CA-II (bovine carbonic anhydrase II) (P00921 2-260): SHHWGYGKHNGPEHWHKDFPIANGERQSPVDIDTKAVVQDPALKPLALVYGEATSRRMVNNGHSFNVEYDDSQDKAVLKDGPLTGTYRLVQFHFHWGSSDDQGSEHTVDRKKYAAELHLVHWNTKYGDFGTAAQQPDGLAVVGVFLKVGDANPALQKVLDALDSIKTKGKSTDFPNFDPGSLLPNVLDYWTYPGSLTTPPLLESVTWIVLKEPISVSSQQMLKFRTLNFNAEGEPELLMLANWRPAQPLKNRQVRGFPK

**Q.** Which IC50 does the source give for CCCCCCCC1(O)CS/C(=N\C(=O)c2ccc(Br)cc2)N1c1ccccc1-c1ccccc1 (stereo not shown) [compound 5, (Z)-N-(3-([1,1'-biphenyl]-2-yl)-4-heptyl-4-hydroxythiazolidin-2-ylidene)-4-bromobenzamide] here?
**A.** 147 ± 30 nM
